Data reported in US20070270312A1, “Heteroaroyl-Substituted Serineamides” (priority 2004, published 2007).

Tests used:
Setaria viridis = assay: greenhouse post-emergence herbicidal test, green foxtail; format: in vivo; details: 2 to 4 weeks; for post-emergence control of green foxtail: application rate 0.5 kg/ha a.s.; for post-emergence action against green foxtail: application rate 1.0 kg/ha a.s.
Source text: (§1) The seeds of the test plants were sown separately for each species. For the post-emergence treatment, the test plants were first grown to a height of 3 to 15 cm, depending on the plant habit, and only then treated with the active ingredients which had been suspended or emulsified in water. For this purpose, the test plants were either sown directly and grown in the same containers, or they were first grown separately as seedlings and transplanted into the test containers a few days prior to treatment. The rate of application for the post-emergence treatment was 1.0 or 0.5 kg/ha of a.s. (active substance). Depending on the species, the plants were kept at 10-25° C. or 20-35° C. The test period extended over 2 to 4 weeks. During this time, the plants were tended, and their response to the individual treatments was evaluated. Evaluation was carried out using a scale from 0 to 100.100 means no emergence of the plants, or complete destruction of at least the aerial parts, and 0 means no damage, or normal course of growth. The plants used in the greenhouse experiments belonged to the following species: [table]

Amaranthus retroflexus = assay: greenhouse post-emergence herbicidal test, pig weed; format: in vivo; details: 2 to 4 weeks; for post-emergence control of pig weed: application rate 0.5 kg/ha a.s.; for post-emergence action against pig weed: application rate 1.0 kg/ha a.s.
Source text: as §1

Chenopodium album = assay: greenhouse post-emergence herbicidal test, lambsquarters; format: in vivo; details: 2 to 4 weeks; for post-emergence control of lambsquarters: application rate 0.5 kg/ha a.s.; for post-emergence action against lambsquarters: application rate 1.0 kg/ha a.s.
Source text: as §1

| Compound | post-emergence control of green foxtail (Setaria viridis) | post-emergence control of pig weed (Amaranthus retroflexus) | post-emergence control of lambsquarters (Chenopodium album) | post-emergence action against green foxtail (Setaria viridis) | post-emergence action against pig weed (Amaranthus retroflexus) | post-emergence action against lambsquarters (Chenopodium album) | melting point |
| --- | --- | --- | --- | --- | --- | --- | --- |
| CNC(=O)C(NC(=O)c1cn(C)nc1C(F)(F)F)C(O)c1cccc(C)n1 (racemic) [Compound 3.2] | very good | very good | very good | – | – | – | – |
| CNC(=O)C(NC(=O)c1cn(C)nc1C(F)(F)F)C(OC(=O)N(C)C)c1nccs1 (mixture of isomers) [Compound 3.59] | – | – | – | very good | very good | very good | – |
| CNC(=O)C(NC(=O)c1cn(C)nc1C(F)(F)F)C(OC(=O)N(C)C)c1nccs1 (mixture of isomers) [Compound 3.57] | – | – | – | very good | very good | very good | – |
| CNC(=O)C(NC(=O)c1cscc1C(F)(F)F)C(O)c1cnc2ccccc2c1 (racemic) [Compound 3.15, rac-erythro-N-(2-hydroxy-1-methylcarbamoyl-2-quinolin-3-ylethyl)-4-trifluoromethyl-thiophene-3-carboxamide] | – | – | – | – | – | – | 206 °C |
| CNC(=O)C(NC(=O)c1cn(C)nc1C(F)(F)F)C(OC(=O)N(C)C)c1cccs1 (mixture of isomers) [Compound 3.6] | very good | very good | very good | – | – | – | – |
| CNC(=O)C(NC(=O)c1cn(C)nc1C(F)(F)F)C(O)c1ccn(C)n1 (racemic) [Compound 3.33] | – | – | – | very good | very good | very good | – |
| CNC(=O)C(NC(=O)c1cn(C)nc1C(F)(F)F)C(O)c1ccccn1 (racemic) [Compound 3.1] | – | – | – | very good | very good | very good | – |
| CNC(=O)C(NC(=O)c1cn(C)nc1C(F)(F)F)C(O)c1cccs1 (mixture of isomers) [Compound 3.5] | – | – | – | very good | very good | very good | – |
| CNC(=O)C(NC(=O)c1cn(C)nc1C(F)(F)F)C(OC(C)=O)c1ccn[nH]1 (mixture of isomers) [Compound 3.19] | very good | very good | very good | – | – | – | – |
| CNC(=O)C(NC(=O)c1cn(C)nc1C(F)(F)F)C(OC(C)=O)c1nccs1 (mixture of isomers) [Compound 3.54] | very good | very good | very good | – | – | – | – |
| CNC(=O)C(NC(=O)c1cn(C)nc1C(F)(F)F)C(O)c1nccs1 (mixture of isomers) [Compound 3.52] | – | – | – | very good | very good | very good | – |
| CNC(=O)C(NC(=O)c1cn(C)nc1C(F)(F)F)C(O)c1ccn[nH]1 (mixture of isomers) [Compound 3.17] | – | – | – | very good | very good | very good | – |
| CNC(=O)C(NC(=O)c1cn(C)nc1C(F)(F)F)C(O)c1nccs1 (mixture of isomers) [Compound 3.51] | – | – | – | very good | very good | very good | – |
